Holding throughout (assay): Hydrolysis of peptide p-nitroanilide substrate, kinetic constants
Common to all, as to assay type: biochemical

The target in assay [1] is T1, Subtilisin Carlsberg, singly modified with PEG monomethacrylate (MW 8,000) (Bacillus licheniformis, UniProt P00780).
T1 construct: purchased Sigma Chemical Co
T1 sequence (P00780 106-379): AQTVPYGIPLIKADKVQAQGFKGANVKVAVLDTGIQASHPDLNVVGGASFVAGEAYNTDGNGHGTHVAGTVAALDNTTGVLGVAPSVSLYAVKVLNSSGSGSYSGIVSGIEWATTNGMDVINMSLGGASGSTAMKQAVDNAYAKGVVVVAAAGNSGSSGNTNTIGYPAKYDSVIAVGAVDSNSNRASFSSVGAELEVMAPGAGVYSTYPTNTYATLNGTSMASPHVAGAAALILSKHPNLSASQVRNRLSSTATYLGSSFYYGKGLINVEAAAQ
Conditions: 25% dioxane/75% buffer. On the procedure:
(§1) Kinetic studies of the modified protein were performed using substrate (N-succinyl-L-alanyl-L-alanyl-L-prolyl-L-phenylalanyl p-nitroanilide) in 0.1M Tris-HCl buffer, pH 8.6. The purified HPLC fractions (three total) were tested for activity while increasing the substrate concentrations in equal increments. Substrate concentration versus rate was plotted to determine Vmax and Km using non-linear regression analysis. A standard of pure subtilisin was analyzed as a control.
(§2) Before reacting PEG-subtilisin with other materials it is necessary to fully characterize the activity and stability of the "bio-monomer". Using solubility, IMAC, and HPLC the modified protein was separated into predominantly singly or doubly modified protein fractions. […] Thus, the activities and stabilities noted are average properties for the sample being studied. For comparison to the native protein, unmodified protein was purified from the modification reaction mixture and characterized to some degree.
(§3) As set forth above, the activity of the modified enzymes was assessed with the artificial peptide substrate succinyl-L-alanyl-L-alanyl-L-prolyl-L-phenylalanyl p-nitroanilide. A sample of 30 mg modified protein powder was dissolved in tetrahydrofuran, and filtered with a solvent resistant 0.22 μm filter in order to remove the insoluble native protein. The solvent was evaporated and, as mentioned above, values for Vmax and Km were determined.

The target of assay [2] is T2, Subtilisin Carlsberg, doubly modified with PEG monomethacrylate (MW 8,000) (Bacillus licheniformis, UniProt P00780).
T2 construct: purchased Sigma Chemical Co
T2 sequence (P00780 106-379): T1 sequence (P00780 106-379)
On the procedure:
as §1, §2, §3

For assay [3], the target named is T3, Subtilisin Carlsberg, unmodified fraction purified from the PEG modification reaction mixture (Bacillus licheniformis, UniProt P00780).
T3 construct: purchased Sigma Chemical Co
T3 sequence (P00780 106-379): T1 sequence (P00780 106-379)
The procedure: as §1, §2, §3

Assay [4] concerns the target T4, Subtilisin Carlsberg, native (pure subtilisin standard) (Bacillus licheniformis, UniProt P00780).
T4 construct: purchased Sigma Chemical Co
T4 sequence (P00780 106-379): T1 sequence (P00780 106-379)
On the procedure:
as §1, §3

Starred links: 1 amine or outer side, 2 acyl side, 3 side chain; linkers in the order of their positions; H or OH if unused. Residues, ends and D or L forms follow the SMILES beside them. *: point of attachment. pNA = O=[N+]([O-])c1ccc(N*)cc1; Suc = O=C(CCC(=O)[*:2])[*:1]

`C[C@H](NC(=O)CCC(=O)O)C(=O)N[C@@H](C)C(=O)N1CCC[C@H]1C(=O)N[C@@H](Cc1ccccc1)C(=O)Nc1ccc([N+](=O)[O-])cc1` [N-succinyl-L-alanyl-L-alanyl-L-prolyl-L-phenylalanyl p-nitroanilide] (Suc-AAPF-pNA): the Vmax in assay [1] is listed as 5.3 ΔA412/sec/mg protein; in assay [2] (25% dioxane/75% buffer), 1.8 ΔA412/sec/mg protein; in assay [2] (Tris-HCl buffer (0.1M, pH 8.6)), 1.6 ΔA412/sec/mg protein; in assay [3] (25% dioxane/75% buffer), 2.9 ΔA412/sec/mg protein; in assay [3] (Tris-HCl buffer (0.1M, pH 8.6)), 2.2 ΔA412/sec/mg protein; in assay [4] (25% dioxane/75% buffer), 66.2 ΔA412/sec/mg protein. Moreover, in assay [4] (Tris-HCl buffer (0.1M, pH 8.6)), the Vmax is 108 ΔA412/sec/mg protein.

For the origin of these results see patent US5482996A, “Protein-containing polymers and a method of synthesis of protein-containing polymers in organic solvents” (University of Pittsburgh, priority 1993, dated 1996).
